US20210352950A1 (priority 2019, published 2021)
“Also recorded” adds a separate entry of the source.

Tests used:
HCT116 cells [1] = experiment: Muse cell viability assay (percentage of dead cells); settings: for effect on STS + vitamin C cytotoxicity: HCT116, STS medium supplemented with transferrin, vitamin C 350 μM
ROS in HCT116 cells = experiment: CellROX reactive oxygen species measurement; type: cell-based, human; settings: HCT116, GSH one hour prior to vitamin C 1 mM
Method: Intracellular reactive-oxygen species (ROS) were measured using the CellROX oxidative stress reagents (Life Technologies, Cat. #: 10422). CellROX fluorogenic probe is designed to measure reactive-oxygen species (ROS) in live cells. […] For ROS measurement, cells were seeded in 10 cm petri dish (4×10^5 cells in CTR medium). After 24 hours cells were rinsed twice in 1×PBS and CTR or STS medium was added. 24 hours later, cells were trypsinized, resuspended in their respective media, and treated with 1 mM sodium ascorbate and 1 μM CellROX deep red reagent in the dark, for 30 minutes at 37° C. and 5% CO2. Then, fluorescence was immediately analyzed by flow cytometry (Attune NxT flow cytometer). Data were processed by Kaluza analysis software (Beckman coulter, version 2.0). Data were expressed as fold change of the median fluorescent intensity (MFI) of each treated sample versus the MFI of control sample.

[2] = test system: KRAS mutant CRC cells (HCT116, DLD1, CT26.WT); settings: for effect on cell death induction by STS and vitamin C cotreatment: STS condition, GSH 5 mM or NAC 5 mM co-treated with vitamin C 350 μM, 24 hours
HCT116 cells [3] = experiment: MTT assay; type: cell-based, human; settings: HCT116, 24 hours-STS before and during oxaliplatin 40 μM 24 hours
Excerpt: The MTT [3-(4,5-Dimethylthiazol-2-yl)-2,5-diphenyltetrazolium bromide] assay is a quantitative colorimetric assay used to determine cell viability (Mosmann, 1983). MTT is characterized by a yellow colour, and upon its reduction to formazan by mitochondrial dehydrogenases, turns into a purple molecule, which has an absorbance peak at 570 nm. The absorbance is proportional to the amount of formazan produced, thus giving a measure of living cells, since the reaction only occur in living and metabolically active cells (Mosmann, 1983).
To evaluate viability, cells were seeded into a 96-well plate (2000 cells per well) in CTR medium. 24 hours later, cells were rinsed twice in 1×PBS, and CTR or STS medium was added. […] At the end of the experiment, medium was removed and cells were incubated with 100 μl of MTT (Sigma-Aldrich, Cat. #: M2128) solution (0.5 mg/ml, dissolved in medium) per well, for 3 hours at 37° C. in the dark. Next, 100 μl of lysis buffer (10% SDS, HCl 0.01M) were added to each well to dissolve formazan crystals and plates were incubated overnight at 37° C. Absorbance was recorded at the wavelength of 570 nm using a microplate reader (Infinite M200 TECAN). The absorbance values of media background were subtracted from the absorbance of each sample. No-treated samples were used as reference values (100% survival) to normalize the absorbance of treated samples.

HCT116 cells [4] = experiment: Erythrosin B exclusion assay; type: cell-based, human; settings: HCT116, 24 hours-STS before and during oxaliplatin 40 μM 24 hours
Method: Erythrosin B is a vital dye that is impermeable to biological membranes, thus staining only unviable cells with disintegrated membranes (Kim et al., 2016).
The next day, cells were rinsed twice in 1×PBS and CTR or STS medium was added. […] Cell death was measured by erythrosine B exclusion assay. Cell suspension was diluted 1:1 with erythrosin B 0.1% in PBS (Sigma-Aldrich, Cat. #: 200964), then cells were counted in a Bürker chamber, and percentage of cell death was calculated as the number of Erythrosin B-positive cells with respect to the total number of cells.

HO-1 = HO-1 expression in HCT116 (qPCR, western blot); type: cell-based, human; settings: HCT116, CTR and STS, hemin 20 μM 12 hours
Method: Cells were washed twice in ice-cold PBS and lysates were prepared in RIPA lysis buffer (50 mM Tris HCl pH 7.4, 150 mM NaCl, 1% NP-40, 0.25% deoxycholic acid, 1 mM EDTA) supplemented with protease and phosphatase inhibitors (protease inhibitor cocktail set III EDTA-free, Calbiochem, Cat. #: S39134; PhosStop, Roche), Samples were sonicated (bioruptor plus, diogenode) and centrifuged at 16.1 g for 30 minutes at 4° C. Tumor tissues were collected and snap frozen in liquid nitrogen immediately after mice were sacrificed, and stored in -80° C. until use. […] Protein concentrations were determined by BCA assay (Thermo Fisher Scientific, Cat. #: 23225). Proteins were diluted in 1× Laemmli sample buffer, boiled at 95° C. for 5 minutes and 30 μg of total proteins were separated by using SDS-PAGE and analyzed by western blotting by standard procedures. […] Membranes were incubated overnight at 4° C. with gentle shaking with the following primary antibodies: […] ADI-SPA894), FTH (1:1000, Cell Signaling, Cat. #: 3998), AMPK (1:1000, Cell Signaling, Cat. #: 2532), phospho-[…] […] Bands intensity was quantified with NIH Image J software (version 1.48v). […] Resulting cDNA (1/20 v/v) was analyzed by real-time polymerase reaction (qRT-PCR) using TaqMan MBG probes with FAM reporter dyes. […]

FTH = FTH protein expression in cells (western blot); type: cell-based, human and murine; settings: HCT116, CTR and STS, hemin 20 μM 12 hours
Method: Cells were washed twice in ice-cold PBS and lysates were prepared in RIPA lysis buffer (50 mM Tris HCl pH 7.4, 150 mM NaCl, 1% NP-40, 0.25% deoxycholic acid, 1 mM EDTA) supplemented with protease and phosphatase inhibitors (protease inhibitor cocktail set III EDTA-free, Calbiochem, Cat. #: S39134; PhosStop, Roche), Samples were sonicated (bioruptor plus, diogenode) and centrifuged at 16.1 g for 30 minutes at 4° C. Tumor tissues were collected and snap frozen in liquid nitrogen immediately after mice were sacrificed, and stored in -80° C. until use. […] Protein concentrations were determined by BCA assay (Thermo Fisher Scientific, Cat. #: 23225). Proteins were diluted in 1× Laemmli sample buffer, boiled at 95° C. for 5 minutes and 30 μg of total proteins were separated by using SDS-PAGE and analyzed by western blotting by standard procedures. […] Membranes were incubated overnight at 4° C. with gentle shaking with the following primary antibodies: […] ADI-SPA894), FTH (1:1000, Cell Signaling, Cat. #: 3998), AMPK (1:1000, Cell Signaling, Cat. #: 2532), phospho-[…] AMPK (1:1000, Cell Signaling, Cat. #: 2535), eIF2a (1:1000, Cell signaling, Cat. #: 5324), phospho […] eIF2a (1:1000, Cell signaling, Cat. #: 3597), AKT (1:1000, Cell Signaling, Cat. #: 9272), phospho-[…] […] Bands intensity was quantified with NIH Image J software (version 1.48v).

CC(=O)N(O)CCCCCNC(=O)CCC(=O)N(O)CCCCCNC(=O)CCC(=O)N(O)CCCCCN [DFO, desferrioxamine]
effect on vitamin C-induced cytotoxicity (HCT116 cells [1]; HCT116, STS, DFO 500 μM pre-treatment, cells washed before vitamin C 350 μM): rescued vitamin C-induced cell cytotoxicity

N[C@@H](CCC(=O)N[C@@H](CS)C(=O)NCC(=O)O)C(=O)O [GSH, glutathione]
effect on increase in ROS mediated by STS and STS+vitamin C (ROS in HCT116 cells): fully reversed the increase in ROS | effect on cell death induction by STS and vitamin C cotreatment [2]: able to revert the massive cell death induction

CC(=O)N[C@@H](CS)C(=O)O [NAC, N-acetyl cysteine]
effect on cell death induction by STS and vitamin C cotreatment [2]: able to revert the massive cell death induction

C=CC1=C(C)c2cc3[n-]c(cc4nc(cc5[n-]c(cc1n2)c(C)c5C=C)C(C)=C4CCC(=O)O)c(CCC(=O)O)c3C.[Zn+2] [ZnPP, zinc protoporphyrin]
susceptibility to vitamin C toxicity ([2]; control medium, ZnPP 20 μM 3 hours before vitamin C 700 μM 24 hours): more susceptible to vitamin C toxicity

O=C1[O][Pt]2([NH][C@@H]3CCCC[C@H]3[NH]2)[O]C1=O [oxaliplatin]
percentage of metabolically active cells (MTT) (HCT116 cells [3]): significantly decrease the percentage of metabolically active cells | percentage of cell death (HCT116 cells [4]): increase the percentage of cell death

MnTMPyP
effect on cell death upon STS + vitamin C (HCT116 cells [1]; HCT116, STS, MnTMPyP 50 μM before vitamin C 350 μM 24 hours): inhibited cell death upon combinatorial treatment

apo-transferrin: iron-free transferrin
effect on STS + vitamin C cytotoxicity (HCT116 cells [1]): not

hemin
HO-1 protein expression level (HO-1): increases | FTH protein expression level (FTH): increases | effect on cancer cell death induced by vitamin C alone or with STS ([2]; hemin 20 μM 3 hours before vitamin C 350 μM, CTR or STS): able to reverse cancer cell death

holo-transferrin: Iron bound-transferrin
effect on STS + vitamin C cytotoxicity (HCT116 cells [1]): able to rescue the observed cytotoxicity; also recorded: reversed STS+vitamin C-mediated toxicity

B1: catalase: Catalase from bovine liver, membrane-impermeable ROS scavenger decomposing hydrogen peroxide (protein, UniProt P00432 2-527, looked up)
Catalase: ADNRDPASDQMKHWKEQRAAQKPDVLTTGGGNPVGDKLNSLTVGPRGPLLVQDVVFTDEMAHFDRERIPERVVHAKGAGAFGYFEVTHDITRYSKAKVFEHIGKRTPIAVRFSTVAGESGSADTVRDPRGFAVKFYTEDGNWDLVGNNTPIFFIRDALLFPSFIHSQKRNPQTHLKDPDMVWDFWSLRPESLHQVSFLFSDRGIPDGHRHMNGYGSHTFKLVNANGEAVYCKFHYKTDQGIKNLSVEDAARLAHEDPDYGLRDLFNAIATGNYPSWTLYIQVMTFSEAEIFPFNPFDLTKVWPHGDYPLIPVGKLVLNRNPVNYFAEVEQLAFDPSNMPPGIEPSPDKMLQGRLFAYPDTHRHRLGPNYLQIPVNCPYRARVANYQRDGPMCMMDNQGGAPNYYPNSFSAPEHQPSALEHRTHFSGDVQRFNSANDDNVTQVRTFYLKVLNEEQRKRLCENIAGHLKDAQLFIQKKAVKNFSDVHPEYGSRIQALLDKYNEEKPKNAVHTYVQHGSHLSAREKANL
effect on STS-mediated sensitization to vitamin C (HCT116 cells [1]; HCT116, STS, catalase 50 U/ml prior to vitamin C 350 μM 24 hours): able to revert STS-mediated sensitization to vitamin C
